Laboratory results from US20150266864A1, “HETEROAROMATIC COMPOUNDS, METHOD FOR PREPARING THE COMPOUNDS, PHARMACEUTICAL COMPOSITIONS, USES AND METHOD FOR TREATING ACUTE AND CHRONIC PAIN” (CRISTÁLIA PRODUTOS QUÍMICOS FARMACÊUTICOS LTDA, priority 2012, published 2015).

Assays:
Swiss mice = assay: Hot plate model, assay for acute pain; type: in vivo; details: ip, 32.25 μmol/kg, plate 52° C., compared to morphine sulfate at the same dose
Text: The antinociceptive activity (AA) of the present invention selected compounds (C3, C9, C11, C12, C13, C15 and C17) was investigated in hot plate model [Hot Plate Model LE7406, Scientific Inc.] described by Kuraishi et al. [Kuraishi, Y., Harada, Y., Aratani, S., Satoh, M., Takagi, H. Brain Research 1983.273, 245-2523]. This method is valid to evaluate the analgesic activity of substances acting on the central nervous system. Swiss mice weighing 20-25 g were placed on a metal plate heated up to 52° C. The animals were withdrawn from the hot plate at the time they lead their forepaws toward the mouth to lick, being this an indicative of pain second Le Bars et al. [Le Bars, D., Gozariu, M., Cadden, S. W. Animal models of nociception. Pharmacol. Rev. 2001, 53 (4), 597-652]. In this way, it was analyzed how long the animal, treated or not (control) with the analgesic substance, remained on the plate at 52° C.; the longest residence time of an animal on the plate was 35 seconds. This time limit (or cut off) (35 s) was determined by the average of three measurements of latency control values, obtained for each animal multiplied by three, to prevent any kind of tissue injury on the footpad of animals's paw due to long permanence on the heated surface. The protocol consisted in the intraperitoneal (ip) injection of the selected compounds of the present invention at a dose of 32.25 μmol/kg. The antinociceptive activity was evaluated at intervals of 10 minutes until effect completely disappear and, compared to morphine sulfate ([…]) at the same dose of 32.25 μmoles/kg (12.2 mg/kg). The investigated parameter is the latency of reflex to paw withdrawal in response to thermal stimulus. The results were expressed as percentage of AA, which was calculated according to Equation 1 for each experiment.

rats subjected to SNL [1] = assay: Spinal nerve ligation (SNL) L5 model, thermal hyperalgesia; type: in vivo, rat; details: for paw withdrawal latency, thermal hyperalgesia: after 7 days of treatment; for reversal of hyperalgesia signs associated with neuropathic pain: ip during 7 days, 32.25 μmol/kg; for effect on thermal hyperalgesia after treatment interruption: after 7 days of 32.25 μmol/kg ip
Procedure: This experimental model was proposed by Kim and Chung [Kim, S. H.; Chung, J. M. Pain 1992, 50: 355-363] and consists of ligation of spinal nerves. Male Wistar rats, 180-220 g, were anesthetized with a mixture of ketamine and xylazine (60 mg/kg and 5 mg/kg, respectively) intraperitoneally. After the dorsal region asepsy, an incision was made between L5 and S1. The L6 transverse process was removed for locating the nerves L4 and L5, which were carefully isolated, and tight ligation of the L5 nerve with 6.0 silk thread was made, interrupting flow of the axon of the nerve. After this procedure, para-spinal muscles and skin were sutured, and then a topical antiseptic was applied. False operated animals (sham) were subjected to the same procedure, however the spinal nerve was not ligated.
This method aims to evaluate the animal behavior in response to hyperalgesic phenomenon resulting from the injury induced by the ligament of spinal nerve (L5). In this regard, paw withdrawal in response to thermal stimulus was used, and the thermal stimulus was induced by the radiant heat of an incandescent lamp bulb. The paw withdrawal test was performed as described for the assessment of thermal hyperalgesia in the sciatic nerve chronic constrictive injury model.
Differences were considered significant when p<0.05.
The treatment started on the 7th day after surgery. Compounds were diluted in water or DMSO and administered through intraperitoneal route on daily basis, during 7 days, at a dose of […]. The effectiveness of tested compounds was assessed on days 1, 3, and 7 days after treatment, always before the next administration of the compound. Latencies were also assessed on days 1, 3, and 7 after treatment interruption.

rats subjected to SNL [2] = assay: Spinal nerve ligation (SNL) L5 model, thermal hyperalgesia; type: in vivo, rat
rats subjected to SNL [3] = assay: Spinal nerve ligation (SNL) L5 model, mechanical allodynia (digital Von Frey); type: in vivo, rat; details: after the first day of treatment, p<0.05

SMILES | antinociceptive activity (AA), hot plate (Swiss mice) | paw withdrawal latency, thermal hyperalgesia (rats subjected to SNL [1]; 32.25 μmol/kg ip) | reversal of hyperalgesia signs associated with neuropathic pain (rats subjected to SNL [1]) | melting point | effect on thermal hyperalgesia after treatment interruption (rats subjected to SNL [1]) | paw withdrawal latency, thermal hyperalgesia (rats subjected to SNL [2]; oral 30 mg/kg, after 7 days of treatment) | paw withdrawal latency, thermal hyperalgesia (rats subjected to SNL [2]; oral 100 mg/kg, after 1 day of treatment) | increase in paw withdrawal latency (rats subjected to SNL [1]; since the first day of treatment, 32.25 μmol/kg ip) | reversion of the signs of mechanical allodynia (rats subjected to SNL [3]; oral 30 mg/kg) | reversion of the signs of mechanical allodynia (rats subjected to SNL [3]; oral 100 mg/kg)
CCOC(=O)C1(c2ccccc2)CCN(CCc2conc2-c2ccc(F)cc2)CC1.Cl [C17, Ethyl 1-{2-[3-(4-fluorophenyl)-1,2-oxazol-4-yl]ethyl}-4-phenylpiperidine-4-carboxylate hydrochloride] | exhibit antinociceptive activity of intensity and kinetics similar to morphine sulfate | statistically significant antinociceptive effect | effective in reverse the hyperalgesia and allodynia signs |  |  |  |  |  |  | 
Cl.OC1(c2ccc(Cl)cc2)CCN(CCc2conc2-c2ccc(F)cc2)CC1 [C15, 4-(4-chlorophenyl)-1-{2-[3-(4-fluorophenyl)-1,2-oxazol-4-yl]ethyl}piperidin-4-ol hydrochloride] | exhibit antinociceptive activity of intensity and kinetics similar to morphine sulfate | statistically significant antinociceptive effect | effective in reverse the hyperalgesia and allodynia signs | 222 to 226 °C (dec.) | maintained for 1 day after treatment interruption |  |  |  |  | 
Cl.Cl.Fc1ccc(-c2n[nH]cc2CCN2CCOCC2)cc1.O [C9, 4-{2-[3-(4-fluorophenyl)-1H-pyrazol-4-yl]ethyl}morpholine dihydrochloride monohydrate] | exhibit antinociceptive activity of intensity and kinetics similar to morphine sulfate | statistically significant antinociceptive effect | effective in reverse the hyperalgesia and allodynia signs |  |  |  |  |  |  | 
CN1CCN(CCc2c[nH]nc2-c2ccc(F)cc2)CC1.Cl.Cl.Cl.O.O [C11, 1-{2-[3-(4-fluorophenyl)-1H-pyrazol-4-yl]ethyl}-4-methylpiperazine trihydrochloride dihydrate] | exhibit antinociceptive activity of intensity and kinetics similar to morphine sulfate | statistically significant antinociceptive effect | effective in reverse the hyperalgesia and allodynia signs |  |  |  |  |  |  | 
Cl.Cl.Fc1ccc(-c2n[nH]cc2CCN2CCCCC2)cc1.O [C3, 1-{2-[3-(4-fluorophenyl)-1H-pyrazol-4-yl]ethyl}piperidine dihydrochloride monohydrate] | exhibit antinociceptive activity of intensity and kinetics similar to morphine sulfate |  |  |  | still observed up to 1 day after treatment interruption | significantly increased the paw withdrawal latency | significantly increased the paw withdrawal latency | statistically significant increase in paw withdrawal latency | reversion of the signs of mechanical allodynia | reversion of the signs of mechanical allodynia
